In patent US11377469B2, “CD73 inhibitors” (ORIC Pharmaceuticals, Inc., priority 2017, dated 2022):

These molecules were tested against CD73 (Homo sapiens (Human), UniProt P21589) (assay: Biochemical Assay (CD73 inhibition, AMP hydrolysis, Malachite Green readout)). Settings: CD73 0.3208 nM, AMP 15 μM, Tris-HCl pH 7.4, Malachite Green absorbance.
Chain of CD73 (P21589 27-574): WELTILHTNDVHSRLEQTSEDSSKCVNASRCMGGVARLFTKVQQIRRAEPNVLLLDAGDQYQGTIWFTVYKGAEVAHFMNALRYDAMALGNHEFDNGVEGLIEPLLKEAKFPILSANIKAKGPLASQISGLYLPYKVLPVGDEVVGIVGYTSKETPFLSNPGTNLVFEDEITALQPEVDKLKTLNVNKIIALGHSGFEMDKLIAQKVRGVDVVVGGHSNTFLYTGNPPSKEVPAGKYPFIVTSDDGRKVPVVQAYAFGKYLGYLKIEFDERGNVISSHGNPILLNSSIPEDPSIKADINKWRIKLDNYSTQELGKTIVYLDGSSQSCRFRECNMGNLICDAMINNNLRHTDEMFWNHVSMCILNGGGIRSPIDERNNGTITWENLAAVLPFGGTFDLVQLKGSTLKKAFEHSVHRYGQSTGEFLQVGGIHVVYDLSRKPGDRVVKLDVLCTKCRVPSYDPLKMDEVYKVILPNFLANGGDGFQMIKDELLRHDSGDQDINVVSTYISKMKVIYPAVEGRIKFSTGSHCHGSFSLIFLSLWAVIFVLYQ

| IC50 [nM] | Structure (SMILES) |
| --- | --- |
| 500 to 1000 | O=P(O)(O)CCC[C@H]1O[C@@H](n2ncc3c(NC4CCCC4)nc(Cl)nc32)[C@H](O)[C@@H]1O [Example 101, (3-((2R,3S,4R,5R)-5-(6-Chloro-4-(cyclopentylamino)-1H-pyrazolo[3,4-d]pyrimidin-1-yl)-3,4-dihydroxytetrahydrofuran-2-yl)propyl)phosphonic acid] |
| ≤ 500 | CC1(C)CCC[C@@H]1Nc1nc(Cl)nc2c1cnn2[C@@H]1O[C@H](COCP(=O)(O)O)[C@@H](O)[C@H]1O [Example 102, ((((2R,3S,4R,5R)-5-(6-chloro-4-(((S)-2,2-dimethylcyclopentyl)amino)-1H-pyrazolo[3,4-d]pyrimidin-1-yl)-3,4-dihydroxytetrahydrofuran-2-yl)methoxy)methyl)phosphonic acid] |
| ≤ 500 | CC1(C)CCC[C@H]1Nc1nc(Cl)nc2c1cnn2[C@@H]1O[C@H](COCP(=O)(O)O)[C@@H](O)[C@H]1O [Example 103, ((((2R,3S,4R,5R)-5-(6-chloro-4-(((R)-2,2-dimethylcyclopentyl)amino)-1H-pyrazolo[3,4-d]pyrimidin-1-yl)-3,4-dihydroxytetrahydrofuran-2-yl)methoxy)methyl)phosphonic acid] |
| ≤ 500 | C[C@@H]1CCC[C@@H]1Nc1nc(Cl)nc2c1cnn2[C@@H]1O[C@H](COCP(=O)(O)O)[C@@H](O)[C@H]1O [Example 104, ((((2R,3S,4R,5R)-5-(6-chloro-4-(((1S,2R)-2-methylcyclopentyl)amino)-1H-pyrazolo[3,4-d]pyrimidin-1-yl)-3,4-dihydroxytetrahydrofuran-2-yl)methoxy)methyl)phosphonic acid] |
| ≤ 500 | C[C@H]1CCC[C@H]1Nc1nc(Cl)nc2c1cnn2[C@@H]1O[C@H](COCP(=O)(O)O)[C@@H](O)[C@H]1O [Example 105, ((((2R,3S,4R,5R)-5-(6-chloro-4-(((1R,2S)-2-methylcyclopentyl)amino)-1H-pyrazolo[3,4-d]pyrimidin-1-yl)-3,4-dihydroxytetrahydrofuran-2-yl)methoxy)methyl)phosphonic acid] |
| ≤ 500 | O=P(O)(O)CS(=O)(=O)C[C@H]1O[C@@H](n2ncc3c(NC4CCC4)nc(Cl)nc32)[C@H](O)[C@@H]1O [Example 107, (((((2S,3S,4R,5R)-5-(6-chloro-4-(cyclobutylamino)-1H-pyrazolo[3,4-d]pyrimidin-1-yl)-3,4-dihydroxytetrahydrofuran-2-yl)methyl)sulfonyl)methyl)phosphonic acid] |
| ≤ 500 | O=P(O)(O)CS(=O)(=O)C[C@H]1O[C@@H](n2nnc3c(NC4CCCC4)nc(Cl)nc32)[C@H](O)[C@@H]1O [Example 108, (((((2S,3S,4R,5R)-5-(5-chloro-7-(cyclopentylamino)-3H-[1,2,3]triazolo[4,5-d]pyrimidin-3-yl)-3,4-dihydroxytetrahydrofuran-2-yl)methyl)sulfonyl)methyl)phosphonic acid] |
| ≤ 500 | CN(C[C@H]1O[C@@H](n2ncc3c(NC4CCCC4)nc(Cl)nc32)[C@H](O)[C@@H]1O)C(=O)CP(=O)(O)O [Example 109, (2-((((2R,3S,4R,5R)-5-(6-chloro-4-(cyclopentylamino)-1H-pyrazolo[3,4-d]pyrimidin-1-yl)-3,4-dihydroxytetrahydrofuran-2-yl)methyl)(methyl)amino)-2-oxoethyl)phosphonic acid] |
| ≤ 500 | O=P(O)(O)CS(=O)(=O)C[C@H]1O[C@@H](n2nnc3c(NC4CCC4)nc(Cl)nc32)[C@H](O)[C@@H]1O [Example 110, (((((2S,3S,4R,5R)-5-(5-chloro-7-(cyclobutylamino)-3H-[1,2,3]triazolo[4,5-d]pyrimidin-3-yl)-3,4-dihydroxytetrahydrofuran-2-yl)methyl)sulfonyl)methyl)phosphonic acid] |
| ≤ 500 | O=P(O)(O)CS(=O)(=O)C[C@H]1O[C@@H](n2ncc3c(NCC4CCC4)nc(Cl)nc32)[C@H](O)[C@@H]1O [Example 111, (((((2S,3S,4R,5R)-5-(6-chloro-4-((cyclobutylmethyl)amino)-1H-pyrazolo[3,4-d]pyrimidin-1-yl)-3,4-dihydroxytetrahydrofuran-2-yl)methyl)sulfonyl)methyl)phosphonic acid] |
| ≤ 500 | O=P(O)(O)CS(=O)(=O)C[C@H]1O[C@@H](n2cnc3c(NC4CCCC4)nc(Cl)nc32)[C@H](O)[C@@H]1O [Example 112, (((((2S,3S,4R,5R)-5-(2-chloro-6-(cyclopentylamino)-9H-purin-9-yl)-3,4-dihydroxytetrahydrofuran-2-yl)methyl)sulfonyl)methyl)phosphonic acid] |
| ≤ 500 | O=P(O)(O)CS(=O)(=O)C[C@H]1O[C@@H](n2nnc3c(NCC4CCC4)nc(Cl)nc32)[C@H](O)[C@@H]1O [Example 113, (((((2S,3S,4R,5R)-5-(5-chloro-7-((cyclobutylmethyl)amino)-3H-[1,2,3]triazolo[4,5-d]pyrimidin-3-yl)-3,4-dihydroxytetrahydrofuran-2-yl)methyl)sulfonyl)methyl)phosphonic acid] |
| ≤ 500 | C[C@H](Nc1nc(Cl)nc2c1nnn2[C@@H]1O[C@H](CS(=O)(=O)CP(=O)(O)O)[C@@H](O)[C@H]1O)c1ccc(F)cc1 [Example 114] |
| 500 to 1000 | CN(C[C@H]1O[C@@H](n2nnc3c(NC4CCCC4)nc(Cl)nc32)[C@H](O)[C@@H]1O)C(=O)CP(=O)(O)O [Example 115, (2-((((2R,3S,4R,5R)-5-(5-chloro-7-(cyclopentylamino)-3H-[1,2,3]triazolo[4,5-d]pyrimidin-3-yl)-3,4-dihydroxytetrahydrofuran-2-yl)methyl)(methyl)amino)-2-oxoethyl)phosphonic acid] |
| ≤ 500 | C[C@H](Nc1nc(Cl)nc2c1cnn2[C@@H]1O[C@H](CS(=O)(=O)CP(=O)(O)O)[C@@H](O)[C@H]1O)c1ccc(F)cc1 [Example 116, (((((2S,3S,4R,5R)-5-(6-chloro-4-(((S)-1-(4-fluorophenyl)ethyl)amino)-1H-pyrazolo[3,4-d]pyrimidin-1-yl)-3,4-dihydroxytetrahydrofuran-2-yl)methyl)sulfonyl)methyl)phosphonic acid] |
| ≤ 500 | O=P(O)(O)CS(=O)(=O)C[C@H]1O[C@@H](n2ncc3c(NCc4ccc(F)cc4)nc(Cl)nc32)[C@H](O)[C@@H]1O [Example 117, (((((2S,3S,4R,5R)-5-(6-chloro-4-((4-fluorobenzyl)amino)-1H-pyrazolo[3,4-d]pyrimidin-1-yl)-3,4-dihydroxytetrahydrofuran-2-yl)methyl)sulfonyl)methyl)phosphonic acid] |
| ≤ 500 | O=P(O)(O)CS(=O)(=O)C[C@H]1O[C@@H](n2nnc3c(NCc4ccccc4Cl)nc(Cl)nc32)[C@H](O)[C@@H]1O [Example 118, (((((2S,3S,4R,5R)-5-(5-chloro-7-((2-chlorobenzyl)amino)-3H[1,2,3]triazolo[4,5-d]pyrimidin-3-yl)-3,4-dihydroxytetrahydrofuran-2-yl)methyl)sulfonyl)methyl)phosphonic acid] |
| ≤ 500 | O=P(O)(O)CS(=O)(=O)C[C@H]1O[C@@H](n2nnc3c(NCc4ccc(F)cc4)nc(Cl)nc32)[C@H](O)[C@@H]1O [Example 119] |
| ≤ 500 | O=P(O)(O)CS(=O)(=O)C[C@H]1O[C@@H](n2nnc3c(NCc4ccc(Cl)cc4)nc(Cl)nc32)[C@H](O)[C@@H]1O [Example 120, (((((2S,3S,4R,5R)-5-(5-chloro-7-((4-chlorobenzyl)amino)-3H[1,2,3]triazolo[4,5-d]pyrimidin-3-yl)-3,4-dihydroxytetrahydrofuran-2-yl)methyl)sulfonyl)methyl)phosphonic acid] |
| ≤ 500 | O=P(O)(O)CS(=O)(=O)C[C@H]1O[C@@H](n2nnc3c(NC4Cc5ccccc5C4)nc(Cl)nc32)[C@H](O)[C@@H]1O [Example 121, (((((2S,3S,4R,5R)-5-(5-chloro-7-((2,3-dihydro-1H-inden-2-yl)amino)-3H-[1,2,3]triazolo[4,5-d]pyrimidin-3-yl)-3,4-dihydroxytetrahydrofuran-2-yl)methyl)sulfonyl)methyl)phosphonic acid] |
| ≤ 500 | O=P(O)(O)CS(=O)(=O)C[C@H]1O[C@@H](n2nnc3c(NCc4cccc(Cl)c4)nc(Cl)nc32)[C@H](O)[C@@H]1O [Example 122] |
| ≤ 500 | O=P(O)(O)CS(=O)(=O)C[C@H]1O[C@@H](n2ncc3c(N[C@H]4CCc5ccccc54)nc(Cl)nc32)[C@H](O)[C@@H]1O [Example 123, (((((2S,3S,4R,5R)-5-(6-chloro-4-(((S)-2,3-dihydro-1H-inden-1-yl)amino)-1H-pyrazolo[3,4-d]pyrimidin-1-yl)-3,4-dihydroxytetrahydrofuran-2-yl)methyl)sulfonyl)methyl)phosphonic acid] |
| ≤ 500 | O=P(O)(O)COC[C@H]1O[C@@H](n2ncc3c(NCC4CCCC4)nc(Cl)nc32)[C@H](O)[C@@H]1O [Example 124, ((((2R,3S,4R,5R)-5-(6-chloro-4-((cyclopentylmethyl)amino)-1H-pyrazolo[3,4-d]pyrimidin-1-yl)-3,4-dihydroxytetrahydrofuran-2-yl)methoxy)methyl)phosphonic acid] |
| ≤ 500 | O=P(O)(O)CS(=O)(=O)C[C@H]1O[C@@H](n2ncc3c(NC4CCCC4)nc(CO)nc32)[C@H](O)[C@@H]1O [Example 125, (((((2S,3S,4R,5R)-5-(4-(cyclopentylamino)-6-(hydroxymethyl)-1H-pyrazolo[3,4-d]pyrimidin-1-yl)-3,4-dihydroxytetrahydrofuran-2-yl)methyl)sulfonyl)methyl)phosphonic acid] |
| ≤ 500 | O=P(O)(O)CS(=O)(=O)C[C@H]1O[C@@H](n2ncc3c(NC4Cc5ccccc5C4)nc(Cl)nc32)[C@H](O)[C@@H]1O [Example 126, (((((2S,3S,4R,5R)-5-(6-chloro-4-((2,3-dihydro-1H-inden-2-yl)amino)-1H-pyrazolo[3,4-d]pyrimidin-1-yl)-3,4-dihydroxytetrahydrofuran-2-yl)methyl)sulfonyl)methyl)phosphonic acid] |

| Structure (SMILES) | IC50 [nM] |
| --- | --- |
| COP(=O)(CP(=O)(O)O)OC[C@H]1O[C@@H](n2nnc3c(NC4CCCC4)nc(Cl)nc32)[C@H](O)[C@@H]1O (stereo partly drawn) [Example 106, (((((2R,3S,4R,5R)-5-(5-chloro-7-(cyclopentylamino)-3H-[1,2,3]triazolo[4,5-d]pyrimidin-3-yl)-3,4-dihydroxytetrahydrofuran-2-yl)methoxy)(methoxy)phosphoryl)methyl) phosphonic acid] | ≤ 500 |
